Source: the NIST ThermoML archive (doi:10.1016/j.jct.2009.08.002)

Test: molar heat capacity at constant pressure; xn = mol fraction of the nth substance listed
Settings: Liquid, Large sample (1 g) DSC

CCCCCCn1cc[n+](C)c1.F[B-](F)(F)F [1-hexyl-3-methylimidazolium tetrafluoroborate] + CC#N
molar heat capacity at constant pressure [J/K/mol]
Settings	283.15 K	288.15 K	293.15 K	298.15 K	303.15 K	308.15 K	313.15 K	318.15 K	323.15 K
x1 = 0.0648	110.9	111.2	111.6	112.1	112.5	113	113.5	114	114.6
x1 = 0.1342	133.5	134	134.5	135	135.6	136.2	136.8	137.4	138.1
x1 = 0.2127	159.4	160	160.7	161.4	162.1	162.9	163.7	164.5	165.3
x1 = 0.2732	179.6	180.3	181.1	181.8	182.7	183.6	184.5	185.5	186.6
x1 = 0.3828	216.5	217.5	218.5	219.6	220.7	221.8	223	224.2	225.5
x1 = 0.5367	268.5	269.8	271.2	272.6	274	275.6	277.2	278.8	280.5
x1 = 0.7064	326.1	327.7	329.4	331.2	333.1	335.1	337.1	339.2	341.4
x1 = 0.8344	369.2	371.2	373.2	375.3	377.4	379.7	382	384.5	387
x1 = 1	425	427.2	429.6	432	434.6	437.2	440	442.9	445.8

CCCCCCCC[n+]1ccn(C)c1.F[B-](F)(F)F [1-methyl-3-octylimidazolium tetrafluoroborate] + CC#N
molar heat capacity at constant pressure [J/K/mol]
Settings	x1 = 0.0359	x1 = 0.1135	x1 = 0.1694	x1 = 0.2341	x1 = 0.3023	x1 = 0.4285	x1 = 0.5437	x1 = 0.6829	x1 = 0.8425	x1 = 1
283.15 K	103.7	133.5	155.3	181	208.3	259.1	305.8	362.2	426.5	489.8
288.15 K	104	133.9	155.9	181.7	209.1	260.4	307.3	364.1	428.9	492.6
293.15 K	104.4	134.4	156.5	182.4	210	261.7	308.9	366	431.3	495.4
298.15 K	104.8	135	157.1	183.2	210.9	263	310.5	368	433.7	498.3
303.15 K	105.2	135.5	157.8	184	211.9	264.3	312.2	370.1	436.2	501.2
308.15 K	105.6	136.1	158.5	184.9	212.9	265.7	313.9	372.2	438.7	504.1
313.15 K	106.1	136.7	159.2	185.7	213.9	267.1	315.7	374.4	441.3	507.1
318.15 K	106.5	137.4	159.9	186.6	215.1	268.5	317.5	376.7	443.9	510.2
323.15 K	107	138	160.7	187.5	216.2	269.9	319.3	379	446.6	513.3
